Reference: ChEMBL document CHEMBL1155328, “A conformational constraint improves a beta-secretase inhibitor but for an unexpected reason” (Bioorg Med Chem Lett, 2009)

Key:
[1] = biological target: Beta-secretase 1 (Homo sapiens, UniProt P56817); experiment: Inhibition of BACE-1
[2] = system: P-gp; experiment: (§1) Apparent permeability in human Caco-2 cells assessed as Pgp efflux ratio from basolateral to apical side to apical to basolateral side; type: ADME, cell-based
[3] = system: Caco-2; experiment: as §1; type: ADME, cell-based

Beta-secretase 1, sequence (P56817 whole entry): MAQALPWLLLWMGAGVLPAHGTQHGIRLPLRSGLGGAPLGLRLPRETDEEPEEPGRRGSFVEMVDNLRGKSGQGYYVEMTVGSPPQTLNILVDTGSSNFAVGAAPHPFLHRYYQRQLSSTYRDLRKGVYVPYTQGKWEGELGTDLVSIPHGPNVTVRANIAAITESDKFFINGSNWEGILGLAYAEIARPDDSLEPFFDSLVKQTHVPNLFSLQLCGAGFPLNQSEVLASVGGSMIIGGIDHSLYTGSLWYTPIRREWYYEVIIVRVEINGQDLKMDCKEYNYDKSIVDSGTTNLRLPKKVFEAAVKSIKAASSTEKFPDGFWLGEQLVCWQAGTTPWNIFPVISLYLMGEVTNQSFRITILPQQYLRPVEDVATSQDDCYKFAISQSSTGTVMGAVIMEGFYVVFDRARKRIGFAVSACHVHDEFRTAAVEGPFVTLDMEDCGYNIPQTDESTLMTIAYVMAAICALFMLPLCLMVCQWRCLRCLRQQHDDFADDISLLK

IC50 [1] [µM] | Ratio [3] | SMILES | efflux ratio [2]
0.35 | – | COc1ccc2c(c1)CCC2(Cc1ccc(C(F)(F)F)cc1)c1cn(C)c(N)n1 (stereo not given) | –
1.8 | 4 | COc1ccc(C(Cc2ccc(C(F)(F)F)cc2)c2cn(C)c(N)n2)cc1 (stereo not given) | –

SMILES | IC50 [1] [µM] | Ratio [3] | efflux ratio [2]
COc1ccc2c(c1F)CCC2(Cc1ccc(C(F)(F)F)cc1)c1cn(C)c(N)n1 (stereo not given) | 0.063 | – | 3.6
